Measurements: US20260327655A1, “SMALL-MOLECULE REGULATED ALTERNATIVE SPLICING” (priority 2023, published 2026)
Like-named read-outs stand apart in the source and are kept apart here.

Key:
Type in all cases: cell-based
RS1-10 = assay: Dose-response profiling assay, RS1-10 Flp-In-293 cell line; conditions: 18 hours, FIGS. 9D-9F
Protocol: Single-copy insertion of an switch construct and subsequent cell-line generation was performed in Flp-In-293 cells according to manufacturer's protocols. The RS1-10 sequence fused to a Firefly Luciferase gene was cloned into a Flp-In compatible pcDNA5/FRT expression vector with a CMV promoter and BGH polyadenylation signal. Resulting Flp-In cell line carried a single-copy expression cassette (RSwitch-controlled) integrated into the genome. The RS1-10 Flp-In cell line was cultured in DMEM+10% FBS, collected after trypsinization, and then dispensed into 96-well plates (cell culture-treated). Each well of the plate was seeded with 1.0×10^5 cells in 100 μL culture medium. Subsequently, either DMSO vehicle or a splice modulator compound at specified doses was added to the wells of the plate. Triplicate wells were used for each condition tested in the experiment. Plates were then incubated for 18 hours in a tissue culture incubator (5% CO2, 37° C.). Endpoint analysis was performed by adding 100 uL of a Luciferase substrate, such as Steady-Luc Firefly Luciferase substrate, to each well of the assay plate. The liquid contents of each was transferred to a 96-well plate, mixed again for 2 min on an orbital shaker, and incubated at room temperature for 5 min. Finally, the luminescent signal from each well was measured with a plate reader. Each plotted data point on a graph in a figure represents a mean of 3 wells+/−standard deviation normalized to vehicle controls. A nonlinear regression curve fit of the plotted data points was generated in graphing software.

[1] = test system: RS2-3 minigene (Firefly Luciferase), HEK-293T cells; assay: Luciferase induction assay, RS2-3 with splice modulator compounds in HEK-293T cells; conditions: Homo sapiens
Protocol: (§1) HEK-293T cells were cultured in DMEM+10% FBS, collected after trypsinization, and then dispensed into 96-well plates (cell culture-treated). Each well of the plate was seeded with 1.0×10^5 cells in 100 μL culture medium. After a 1-hour incubation in a tissue culture incubator (5% CO2, 37 degrees C.), plasmid DNA was complexed with a transfection reagent, such as Lipofectamine 3000, and added to respective wells on the plate. Each well received an equivalent of 100 ng of plasmid DNA complexed with 0.15 μL Lipofectamine. Triplicate wells were used for each condition tested in the experiment. The plasmid utilized in the experiment encoded a CMV promoter upstream of the RS2-3 variant that controlled the expression of a Firefly Luciferase gene followed by a SV40 polyadenylation signal. After a 10-minute incubation at room temperature, either DMSO vehicle or specified compound at specified dose was added to the wells of the plate. Plates were then incubated for 18 hours in a tissue culture incubator. Endpoint analysis was performed by adding 100 uL Steady-Luc Firefly Luciferase substrate to each well of the assay plate. After mixing, the liquid contents of each was transferred to a 96-well plate, mixed again for 2 min on an orbital shaker, and incubated at room temperature for 5 min. Finally, the luminescent signal from each well was measured with a with PerkinElmer Envision plate reader. The results of this assay show RS2-3 responded to the majority of the splice modulator compounds used (FIG. 13C) Bars represent mean+/−standard deviation of 3 wells normalized to vehicle controls.

[2] = test system: RS3-13 minigene (Firefly Luciferase), HEK-293T cells; assay: Luciferase induction assay, RS3-13 with splice modulator compounds in HEK-293T cells; conditions: Homo sapiens
Protocol: as §1, with “RS3-13” for “the RS2-3 variant”, “RS3-13” for “RS2-3”, “14D)” for “13C)”

[3] = test system: RS1-10 minigene (Firefly Luciferase), HEK-293T cells; assay: Luciferase induction assay, RS1-10 with splice modulator compounds in HEK-293T cells; conditions: Homo sapiens
Protocol: as §1, with “of the RS I-10 variant that” for “of the RS2-3 variant that”, “assay show RS1-10 responded to” for “assay show RS2-3 responded to”, “compounds used in a dose responsive manner (FIG. 9C).” for “compounds used (FIG. 13C)”, “manner (FIG. 9C). Bars represent” for “used (FIG. 13C) Bars represent”

[4] = RS2-3, 100 nM, 18 hours, n of 3, read-out: Mean fold-induction of luciferase (relative to vehicle control)
[5] = RS2-3, 1,000 nM, 18 hours, n of 3, read-out: Mean fold-induction of luciferase (relative to vehicle control)
[6] = RS3-13, 100 nM, 18 hours, n of 3, read-out: Mean fold-induction of luciferase (relative to vehicle control)
[7] = RS3-13, 1,000 nM, 18 hours, n of 3, read-out: Mean fold-induction of luciferase (relative to vehicle control)
[8] = RS1-10, 100 nM, 18 hours, n of 3, read-out: Mean fold-induction of luciferase (relative to vehicle control)
[9] = RS1-10, 1,000 nM, 18 hours, n of 3, read-out: Mean fold-induction of luciferase (relative to vehicle control)
[10] = 18 h, read-out: Mean fold-induction of luciferase (relative to vehicle control)

| SMILES | fold-induction of luciferase signal, dose response (RS1-10) | fold induction at 0.1 µM [1, 4] | fold induction at 1 µM [1, 5] | fold induction at 0.1 µM [2, 6] | fold induction at 1 µM [2, 7] | fold induction at 0.1 µM [3, 8] | fold induction at 1 µM [3, 9] | fold induction at 0.1 µM [1, 10] | fold induction at 1 µM [1, 10] | fold induction at 0.1 µM [2, 10] | fold induction at 1 µM [2, 10] | fold induction at 0.1 µM [3, 10] | fold induction at 1 µM [3, 10] |
| --- | --- | --- | --- | --- | --- | --- | --- | --- | --- | --- | --- | --- | --- |
| Cn1cc2cc(-c3ccc(-c4ccc(C5CN(C6CCOCC6)C5)nn4)c(O)c3)ccc2n1 [22 A, 5-(2-methyl-2H-indazol-5-yl)-2-{6-[1-(oxan-4-yl)azetidin-3-yl]pyridazin-3-yl}phenol] | increase in fold-induction of luciferase signal with increasing concentrations | – | – | – | – | – | – | – | – | – | – | – | – |
| CCN1CC(c2ccc(-c3ccc(-c4cc(C)c5nn(C)cc5c4)cc3O)nn2)C1 [34 A, 5-(2,7-dimethyl-2H-indazol-5-yl)-2-[6-(1-ethylazetidin-3-yl)pyridazin-3-yl]phenol] | increase in fold-induction of luciferase signal with increasing concentrations | – | – | – | – | – | – | – | – | – | – | – | – |
| Cc1cn2nc(-c3ccc(-c4ccc(C5CNC5)nn4)c(O)c3)cc(C)c2n1 [Compound 3A] | – | 2.86 | 17.6 | 1.81 | 10.2 | 31.7 | 94.7 | – | – | – | – | – | – |
| Cc1cc(-c2ccc(-c3ccc(C4CNC4)nn3)c(O)c2)cc2cn(C)nc12 [Compound 6A] | – | 2.54 | 13.9 | 1.69 | 7.94 | 29.4 | 69.6 | – | – | – | – | – | – |
| Cc1cn2cc(-c3cc(O)c(-c4ccc(C5CNC5)nn4)cc3F)cc(F)c2n1 [Compound 8A] | – | 4.1 | 16 | 2.11 | 9.79 | 41.5 | 79.2 | – | – | – | – | – | – |
| Cc1cn2cc(-c3ccc(-c4ccc(C5CNC5)nn4)c(O)c3F)cc(F)c2n1 [Compound 10A] | – | 11.1 | 29.2 | 10.1 | 43.6 | 65.9 | 96 | – | – | – | – | – | – |
| Cc1cn2cc(-c3ccc(-c4ccc(C5CN(C(C)C)C5)nn4)c(O)c3)cc(F)c2n1 [Compound 15A] | – | 17 | 39.4 | 20.6 | 54.5 | 79 | 82 | – | – | – | – | – | – |
| CCN1CC(c2ccc(-c3ccc(-c4cn5cc(C)nc5c(C)n4)cc3O)nn2)C1 [Compound 32A] | – | 5.9 | 23.3 | 3.24 | 23 | 53.5 | 83.1 | – | – | – | – | – | – |
| Cc1cn2cc(-c3ccc(-c4ccc(C5CN(C6CCOC(C)(C)C6)C5)nn4)c(O)c3)cc(F)c2n1 (centres unmarked) [Compound 86A] | – | 7.86 | 27.7 | 7.54 | 31.3 | 56.1 | 85.1 | – | – | – | – | – | – |
| Cc1cn2cc(-c3ccc(-c4ccc(C5CN(Cc6cocn6)C5)nn4)c(O)c3)cc(F)c2n1 [Compound 101A] | – | 8.48 | 31.5 | 6 | 34.2 | 57.5 | 86.8 | – | – | – | – | – | – |
| Cc1cn2cc(-c3nc(=O)n4cc(N5CCNCC5)cc(C)c4n3)cc(F)c2n1 [Compound 108B] | – | 1.65 | 1.76 | 1.41 | 1.66 | 1.16 | 1.43 | – | – | – | – | – | – |
| Cc1cn2cc(-c3nc(=O)n4cc(C5=CCNCC5)ccc4n3)cc(F)c2n1 [Compound 111B] | – | – | – | – | – | – | – | 1.6 | 2.97 | 1.32 | 1.63 | 3.06 | 48.4 |
| Cc1cn2cc(-c3nc(=O)n4cc(N5CCN[C@@H](C)C5)cc(C)c4n3)cc(F)c2n1 [Compound 117B] | – | 15.2 | 39.9 | 22.8 | 55.6 | 52.1 | 73.5 | – | – | – | – | – | – |
| Cc1cn2cc(-c3nc(=O)n4cc(N5CCN[C@@H](C)C5)cc(F)c4n3)cc(C)c2n1 [Compound 121B] | – | 9.41 | 28.8 | 9.95 | 46 | 24.6 | 73.5 | – | – | – | – | – | – |
| Cc1cn2cc(-c3nc(=O)n4cc(N5CCNCC5)ccc4n3)cc(C)c2n1 [Compound 126B] | – | 5.18 | 17.8 | 3.46 | 25.2 | 2.06 | 41.5 | – | – | – | – | – | – |
| Cc1cc2cc(-c3nc(=O)n4cc(N5CCNC(C)(C)C5)cc(F)c4n3)cc(C)n2n1 [Compound 135B] | – | 7.61 | 14.7 | 5.99 | 16.1 | 16.1 | 48.8 | – | – | – | – | – | – |
| Cc1cc2cc(-c3ccc(-c4ccc(C5CN(C6CCOCC6)C5)nn4)c(O)c3)ccn2n1 [Compound 192A] | – | 4.97 | 22.7 | 2.18 | 13.4 | 51.3 | 70.8 | – | – | – | – | – | – |
